# From US9643032B2, “Application of dehydroascorbic acid or derivatives/isomers thereof for artificially coloring the skin” (L'Oreal, priority 2007, dated 2017)
# Tested on: Episkin model of reconstructed skin
# Assay: Skin coloring on the Episkin model of reconstructed skin, spectrocolorimeter measurement after washing
# Format: cell-based
# Description: The products are evaluated on the Episkin model of reconstructed skin after 18 days of culturing. The crucibles are placed on Whatman paper. 20 μl of a 5 wt % solution of test product in a 50% water/50% ethanol mixture. […] A second rinse is performed with 1 ml of water. The residual liquid is absorbed using a soft paper tissue. The measurements are taken using a Minolta CM-2600d spectrocolorimeter.
# Spectrocolorimeter Minolta CM2600d
# The results are expressed in the system (L*, a*, b*) dans lequel L* is the luminance, a* is the red-green axis (−a*=green, +a*=red) and b* is the yellow/blue axis (−b*=blue, +b*=yellow). Therefore, a* and b* express the coloring of the skin.
# The color deviation is obtained with the color deviation formula of Hunter in the calorimetric domain L, a, b: (ΔE)^2=[(ΔL)^2+(Δa)^2+(Δb)^2]. ΔE is the darkening, the global intensity of the color: The more ΔE is important the more the color darkened.
# [1] = 5 wt % solution in 50% water/50% ethanol, 20 μl, after 24 hours, after washing
structure (smiles),measurement,setting,value
"O=C1OC(C(O)CO)C(=O)C1=O (stereo not drawn) [Dehydroascorbic acid, threo-2,3-hexodiulosono-1,4-lactone, 9CI]",L* (luminance / intensity),[1],77.7
same,a* (red component),[1],4.8
same,b* (yellow component),[1],35
same,"ΔE*ab (color deviation, darkening)","5 wt % solution, after 24 hours, after washing, deviation versus Episkin alone",14.6
same,Shade obtained compared with DHA,concentration equal to 5 wt %,stronger shade with a more pronounced dominant red
